pIC50: −log10 of the molar value.
Test system: Porcine Smooth Muscle Cell
Experiment: Effects of Compounds on Cell Proliferation Using 3H Thymidine Incorporation
Type: cell-based
Details: for pIC50: serum/growth factor stimulated cells, 24-36 h incubation, read-out: Porcine Smooth Muscle Cell Antiproliferation IC50
Protocol: Effects of Compounds on Cell Proliferation Using ^3H Thymidine Incorporation
Human and porcine smooth muscle cells were tested in early passage (generally passage 3-7) at sub-confluent conditions. Cultures were grown in 16 mm (24 well) multi-well culture dishes in medium 199 supplemented with 10% fetal bovine serum and 2% antibiotic/antimycotic. At sub-confluence, the cells were placed in a defined serum free medium (AIM-V; Gibco) for 24-48 h prior to initiating the experimental protocol.
Compounds were added to each well at 50 fold dilution (20 μL/well) and the plates were incubated for 24-36 h at 37° C. in 5% CO2. Compounds were initially dissolved in 50% ethanol and serially diluted into media. Compounds were routinely evaluated at concentrations from 1 to 100 μM. As a control, grade II porcine intestinal mucosal heparin (sodium salt) was routinely evaluated in all cell preparations at concentrations from 0.1 to 100 μg/mL.
At the completion of the test procedure, plates were placed on ice, washed three times with ice cold phosphate buffered saline (PBS) and incubated in ice cold 10% trichloroacetic acid (TCA) got 30 min to remove acid soluble proteins. Solution was transferred to scintillation vials containing 0.4 N HCl (500 μL/vial to neutralize NaOH) and each well was rinsed two times with water (500 μL) for a total volume of 2 mL/vial.
Data was obtained, in triplicate, for both control and experimental samples. Control (100%) data was obtained from maximally stimulated cells, as the result of growth factor or serum stimulation. Experimental data was obtained from cells maximally stimulated with growth factor or serum and treated with compound. Data are expressed as an IC50 or percent inhibition in Table I below.

With `O=C(Nc1cc(CO[C@@H]2O[C@H](CO)[C@@H](O[C@H]3O[C@@H]4COC(c5ccccc5)O[C@H]4[C@H](O)[C@H]3O)[C@H](O)[C@H]2O)ccc1Cl)c1ccco1` (stereo partly drawn) [Example 63, Furan-2-carboxylic acid {5-[(4′,6′-O-benzylidene-β-D-maltosyl)-oxy-methyl]-2-chloro-phenyl}-amide] the pIC50 was 5.11.
`CC(=O)OC1C(OC2C(COC(=O)c3cccnc3)OC(OCc3ccc(Cl)c([N+](=O)[O-])c3)C(OC(C)=O)C2OC(C)=O)OC2COC(c3ccccc3)OC2C1OC(C)=O` [Example 33, (R)-(4-Chloro-3-nitrophenyl)methyl 4-[2,3-di-O-acetyl-4,6-O-(phenylmethylene)-α-D-glucopyranosyl]-β-D-glucopyranoside 2,3-diacetate 6-(3-pyridinecarboxylate)] gave a pIC50 of 6.51.
Compound `COC(=O)Nc1cc(COC2OC(CO)C(OC3OC4COC(c5ccccc5)OC4C(O)C3O)C(O)C2O)ccc1Cl` [Example 80, N-{5-[(4′,6′-O-Benzylidene-β-D-maltosyl)-oxy-methyl]-2-chloro-phenyl}-carbamic acid methyl ester] has a pIC50 of 5.12.
`CC(=O)OCC1OC(OCc2ccc(C)c(N(C(C)=O)C(C)=O)c2)C(OC(C)=O)C(OC(C)=O)C1OC1OC2COC(c3ccccc3)OC2C(OC(C)=O)C1OC(C)=O` [Example 58, N-Acetyl-{5-[(2,2′,3,3′,6-penta-O-acetyl-4′,6′-O-benzylidene-β-D-maltosyl)-oxy-methyl]-2-methyl-phenyl}acetamide] was tested, and the pIC50 was 6.22.
`CC(=O)Nc1cc(CO[C@@H]2O[C@H](CO)[C@@H](O[C@H]3O[C@@H]4COC(c5ccccc5)O[C@H]4[C@H](O)[C@H]3O)[C@H](O)[C@H]2O)ccc1Cl` (stereo partly drawn) [Example 24, N-{5-[(4′,6′-O-Benzylidene-β-D-maltosyloxy)-methyl]-2-chloro-phenyl}-acetamide] showed a pIC50 of 5.18.
In the case of `O=C(Nc1cc(CO[C@@H]2O[C@H](COC(=O)c3ccccc3I)[C@@H](O[C@H]3O[C@@H]4COC(c5ccccc5)O[C@H]4[C@H](O)[C@H]3O)[C@H](O)[C@H]2O)ccc1Cl)c1ccc(C(=O)c2ccccc2)cc1` (stereo partly drawn) [Example 72, 4-Benzoyl-N-{5-[(4′,6′-O-benzylidene-6-O-(2-iodo)-benzoyl-β-D-maltosyl)-oxy-methyl]-2-chloro-phenyl}-benzamide], the pIC50 was 7.80.
Compound `CC(=O)Nc1cc(CO[C@@H]2O[C@H](COC(=O)c3ccccc3)[C@@H](O[C@H]3O[C@@H]4COC(c5ccccc5)O[C@H]4[C@H](O)[C@H]3O)[C@H](O)[C@H]2O)ccc1Cl` (stereo partly drawn) [Example 26, N-{5-[(6-O-Benzoyl-4′,6′-O-benzylidene-β-D-maltosyl-oxy)-methyl]-2-chloro-phenyl}-acetamide] has a pIC50 of 7.52 to 8.00.
Work on `CC(NC(=O)OCC1c2ccccc2-c2ccccc21)C(=O)Nc1cc(COC2OC(CO)C(OC3OC4COC(c5ccccc5)OC4C(O)C3O)C(O)C2O)ccc1Cl` [Example 75, (1-{5-[(4′,6′-O-Benzylidene-β-D-maltosyl)-oxy-methyl]-2-chloro-phenyl-carbamoyl}ethyl)-carbamic acid 9H-fluoren-9ylmethyl ester] yielded a pIC50 of 5.33.
Work on `CC(=O)Nc1cc(COC2OC(COC(=O)c3ccccc3)C(OC3OC4COC(C)OC4C(OC(C)=O)C3OC(C)=O)C(OC(C)=O)C2OC(C)=O)ccc1Cl` [Example 3, (R)-N-[2-Chloro-5-[[[2,3-di-O-acetyl-6-O-benzoyl-4-O-(2,3-di-O-acetyl-4,6-O-ethylidene-α-D-glucopyranosyl)-β-D-glucopyranosyl]oxy]methyl]phenyl]acetamide] yielded a pIC50 of 5.53.
With `COC(=O)CCCC(=O)OCC1OC(OCc2ccc(Cl)c(NC(C)=O)c2)C(O)C(O)C1OC1OC2COC(c3ccccc3)OC2C(O)C1O` [Example 28, (R)-N-[2-Chloro-5-[[[6-O-(5-methoxy-1,5-dioxopentyl)-4-O-[4,6-O-(phenylmethylene)-α-D-glucopyranoysl]-β-D-gluconyranosyl]oxy]methyl]-phenyl]acetamide] the pIC50 was 6.40.
Work on `CC(=O)Nc1cc(COC2OC(COC(=O)c3ccccc3)C(OC3OC4COC(CCC#N)OC4C(O)C3O)C(O)C2O)ccc1Cl` [Example 19, N-{5-{[6-O-Benzoyl-4′,6′-O-((1R)-3-cyanopropylidene)-β-D-maltosyloxy]-methyl}-2-chloro-phenyl}-acetamide] yielded a pIC50 of 9.00.
In the case of “Benzoic acid 6-(3-acetylamino-4-chloro-benzoyloxy)-3-(7,8-dihydroxy-2-pyridin-4-yl-hexahydro-pyrano[3,2-d][1,3]dioxin-6-yloxy)-4,5-dihydroxy-tetrahydro-pyran-2-ylmethyl ester [Example 23]”, the pIC50 was 8.52.
`CC(=O)Nc1cc(COC2OC(COC(=O)Cc3ccccc3)C(OC3OC4COC(c5ccccc5)OC4C(O)C3O)C(O)C2O)ccc1Cl` [Example 46, (R)-N-[-2-Chloro-5-[[[6-O-(phenylacetyl)-4-O-[4,6-O-(phenylmethylene)-α-D-glucopyranosyl]-β-D-glucopyranosyl]oxy]methyl]phenyl]acetamide] showed a pIC50 of 7.49.
With `CC(=O)Nc1cc(COC2OC(COC(=O)c3cccc(I)c3)C(OC3OC4COC(c5ccccc5)OC4C(O)C3O)C(O)C2O)ccc1Cl` [Example 44, N-{5-[(4′,6′-O-Benzylidene-6-O-(3-iodo)-benzoyl-β-D-maltosyl)-oxy-methyl]-2-chloro-phenyl}-acetamide] the pIC50 was 7.21.
Work on `CC(=O)Nc1cc(COC2OC(COC(=O)c3ccc([N+](=O)[O-])cc3)C(OC3OC4COC(c5ccccc5)OC4C(O)C3O)C(O)C2O)ccc1Cl` [Example 41, (R)-N-[2-Chloro-5-[[[6-O-(4-nitrobenzoyl)-4-O-[4,6O-(phenylmethylene)-α-D-glucopyranosyl]-β-D-glucopyranosyl]oxy]methyl]phenyl]acetamide] yielded a pIC50 of 6.56.
In the case of `O=C(OCC1OC(SCc2ccc(Cl)c([N+](=O)[O-])c2)C(O)C(O)C1OC1OC2COC(c3ccccc3)OC2C(O)C1O)c1ccccc1` [Example 87, (4-Chloro-3-nitro-benzyl) 6-O-benzoyl-4′,6′-O-benzoyl-4′,6′-O-benzylidene-1-thio-β-D-maltoside], the pIC50 was 7.51.
In the case of `C[C@H](N)C(=O)Nc1cc(CO[C@@H]2O[C@H](COC(=O)c3ccccc3)[C@@H](O[C@H]3O[C@@H]4COC(c5ccccc5)O[C@H]4[C@H](O)[C@H]3O)[C@H](O)[C@H]2O)ccc1Cl` (stereo partly drawn) [Example 77, N′-{5-[(6-O-benzoyl-4′,6′-O-benzylidene-β-D-maltosyl)-oxy-methyl]-2-chloro-phenyl}-L-alaninamide], the pIC50 was 7.09.
In the case of `O=C(OCC1OC(OCc2ccc(Cl)c(NC(=O)c3ccco3)c2)C(O)C(O)C1OC1OC2COC(c3ccccc3)OC2C(O)C1O)c1ccccc1` [Example 64, Furan-2-carboxylic acid {5-[(6-O-benzoyl-4′,6′-O-benzylidene-β-D-maltosyl)-oxy-methyl]-2-chloro-phenyl}-amide], the pIC50 was 7.30.
`CC(=O)Nc1cc(COC2OC(COC(=O)c3ccc(C(=O)c4ccccc4)cc3)C(OC3OC4COC(c5ccccc5)OC4C(O)C3O)C(O)C2O)ccc1Cl` [Example 56, (R)-N-[5-[[[6-O-(4-Benzoylbenzoyl)-4-O-[4,6-O-(phenylmethylene)-α-D-glucopyranosyl]-β-D-glucopyranosyl]oxy]methyl]-2-chlorophenyl]acetamide] gave a pIC50 of 6.28.
`CC(=O)Nc1cc(COC2OC(COC(=O)c3cccc(C(F)(F)F)c3)C(OC3OC4COC(c5ccccc5)OC4C(O)C3O)C(O)C2O)ccc1Cl` [Example 42, (R)-N-[2-Chloro-5-[[[6-O-(3-trifluoromethylbenzoyl)-4-O-[4,6O-(phenyl-methylene)-α-D-glucopyranosyl]-β-D-glucopyranosyl]oxy]methyl]phenyl]acetamide] showed a pIC50 of 7.57.
For `CC(=O)Nc1cc(COC2OC(COC(=O)c3ccccc3)C(OC3OC4COC(c5ccc(Cl)cc5)OC4C(O)C3O)C(O)C2O)ccc1Cl` [Example 13, N-{1 5-[(6-O-Benzoyl-4′,6′-O-(4-chloro)-benzylidene-β-D-maltosyl)-oxy-methyl]-2-chloro-phenyl}-acetamide], the pIC50 was 7.64.
`OCC1OC(OCc2ccc(Cl)cc2)C(O)C(O)C1OC1OC2COC(c3ccccc3)OC2C(O)C1O` [Example 68, (4-Chloro)-benzyl-4′,6′-O-benzylidene-β-D-maltoside] was tested, and the pIC50 was 4.60.
`CC(=O)Nc1cc(COC2OC(COC(=O)c3ccccc3)C(OC3OC4COC(c5ccccc5)OC4C(O)C3O)C(O)C2O)ccc1C#N` [Example 84, N-{5-[(6-O-Benzoyl-4′,6′-O-benzylidene-β-D-maltosyl)-oxy-methyl]-2-cyano-phenyl}-acetamide] gave a pIC50 of 6.60.
`O=[N+]([O-])c1cc(COC2OC(CO)C(OC3OC4COC(c5ccccc5)OC4C(O)C3O)C(O)C2O)ccc1Cl` [Example 29, 4-Chloro-3-nitro-benzyl-4′,6′-O-benyzlidene-β-D-maltoside] gave a pIC50 of 4.36.
For `CCC1OCC2OC(OC3C(CO)OC(OCc4ccc(Cl)c(NC(C)=O)c4)C(O)C3O)C(O)C(O)C2O1` [Example 4, N-{2-Chloro-5-[(4′,6′-O-propylidene-β-D-maltosyl)-oxy-methyl]-pheny}-acetamide], the “Porcine Smooth Muscle Cell Antiproliferation, percent inhibition” value (@ 50 μM, control (100%) = maximally stimulated cells) was 16% @ 50.
Work on `O=[N+]([O-])c1cc(CSC2OC(CO)C(OC3OC4COC(c5ccccc5)OC4C(O)C3O)C(O)C2O)ccc1Cl` (centres unmarked) [Example 86, 6-[-6-(4-Chloro-3-nitro-benzylsulfanyl)-4,5-dihydroxy-2-hydroxymethyl-tetrahydro-pyran-3-yloxy]-2-phenyl-hexahydro-pyrano[3,2-d][1.3]dioxine-7.8-diol] yielded a pIC50 of 4.79.

Source: patent US6340670B1, “Acetal benzylmaltosides as inhibitors of smooth muscle cell proliferation” (American Home Products Corporation, priority 1998, dated 2002)
